Measured values as given in patent US7098216B2, “Thiazolopyrimidines useful as TNFα inhibitors” (The Regents of the University of California, priority 1999, dated 2006).
Where two headings read alike, the source gives them in different places. One block for each compound: values may come before it.

Assays:
Jurkat cell line = assay: Jurkat cell growth, MTT assay; assay type: cell-based, human; details: concentration below 50 μM, 72 h, MTT (FIG. 3)
Procedure: In this experiment, cells of the continuous human lymphoblastoid Jurkat cell line were suspended at 1×10^5/ml in complete medium containing various amounts of 8a and 8b dissolved in DMSO. Seventy-two hours later the cell density was assessed using the MTT assay, which measures the reduction of a tetrazolium dye. The cell densities were compared to control cultures lacking any additional drugs.

[1] = Acute toxicity testing in ICR mice, IP; assay type: in vivo; details: five daily IP injections at 100 mg/kg, 30 days of observation
Procedure: ICR mice (ca. 20 g) were injected IP for 5 days with 50 mg/kg, and 100 mg/kg of each of 8a and 8b dispersed in aqueous hydroxypropyl β-cyclodextrin (50% w/v).

TNFα in the plasma = assay: Time course of TNFα inhibition after oral 8a in LPS-injected mice; assay type: in vivo, ICR mice; details: 100 mg/kg by gavage, LPS 24 hours later (FIG. 6)
Procedure: The purpose of these experiments was to determine how long after administration of compound 8a by gavage could its inhibitory effects on LPS-induced TNFα production be detected. Accordingly, all the ICR in this instance were given 8a at a dosage of 100 mg/kg by gavage. Then at 1, 4, 10, and 24 hours later, each animal received 1 μg/ml IP LPS, and two hours later (i.e., at 3, 6, 12, and 26 hours), blood was removed for TNFα ELISA.

adjuvant arthritis = assay: Adjuvant arthritis in Lewis rats; assay type: in vivo; details: 100 mg/kg by gavage daily
Procedure: Since TNFα antagonists have shown considerable value in the treatment of rheumatoid arthritis, compound 8a was evaluated in an animal model that is TNFα dependent. Adjuvant arthritis is an acute inflammatory disease induced in certain rat strains by the administration of heat-killed mycobacteria dispersed in […]. The disease is manifest by severe joint swelling, mainly of the ankles and feet.
Two groups of seven Lewis rats each were immunized intradermally with 5 mg of heat-killed mycobacterium tuberculosis emulsified in incomplete Freund's adjuvant. One day later, one group of animals (N=7) received 100 mg/kg of 8a by gavage. Another group of animals received no treatment. The oral dosing was continued every day up to day 30. […] The mean arthritis score can vary from 0 to 4 for each limb, yielding a maximum score of 16. Note that the untreated animals (group 1) achieved a mean arthritis score of 10 on day 18. In contrast, the treated animals reach a mean arthritis score of 5, for 50% inhibition.

[2] = system: IL-1β production by human monocytes; assay: Inhibition of LPS-induced IL-1β production in human monocytes (ELISA); assay type: cell-based; details: Monocyte; human monocytes stimulated with LPS (FIG. 2); read-out: 50% inhibitory dose, IL-1 production
Procedure: (§1) Peripheral blood mononuclear cells were isolated from normal human blood on Hypaque-Ficoll density gradients. 100 μl aliquots of monocytes were placed onto 96 well microtiter plates at a density of […] in RPMI-1640 medium containing 10% autologous plasma. After incubation for 24 hrs., various concentrations of the test compound in DMSO were added to the plated cells in a volume of 100 μl and incubated for 1 hr. After incubation, […] of LPS was added to each well.
(§2) Eighteen hours after exposure of the plated cells to LPS, 100 μl of medium was collected from each well and assayed (by ELISA, R&D Systems) for release of IL-1 and TNFα, using recombinant human TNF as a standard (n=5). The sensitivity of the assay ranged from 10–100 pg/ml.
FIG. 2 summarizes the effects of 8b and 8a on the production of IL-1β by human monocytes stimulated with LPS, under the same conditions used for the TNFα study.

[3] = system: TNFα plasma concentration; assay: Oral 8a dose response on LPS-induced plasma TNFα in mice; assay type: in vivo, ICR mice
Procedure: ICR mice were dosed orally at 25, 50 and 100 mg/kg of 8a in cyclodextrin, prepared as in Example 7. After 1 hr., each mouse was injected with E. coli LPS (1 μg/mouse). Two hours later, 250 μl samples of blood were obtained by retro-orbital bleeding without anesthetization. The blood was heparinized, centrifuged for 10 min. at 10 K rpm (4° C.) and TNFα determined by ELISA. […] The two bars at the top of the figure show the baseline levels of TNFα in the mouse plasma, which were undetectable, and the effects of 8a administered alone, which were negligible.

[4] = system: TNFα production in human monocytes; assay: Inhibition of LPS-induced TNFα production in human monocytes (ELISA); assay type: cell-based; details: Monocyte
Procedure: as §1, §2

[5] = human monocytes, LPS, 18 h, ELISA (FIG. 1), read-out: IC50, TNFα production

Structure (SMILES): CCOC(=O)CCCn1c(=O)c2sc(N)nc2n(C)c1=O [8a, Ethyl 4-[2-Amino-4-methyl-5,7-dioxothiazolo [4,5-d]pyrimidin-6-yl]-butanoate]
growth inhibitory activity on Jurkat cells (Jurkat cell line): neither 8b nor 8a had significant growth inhibitory activity | weight change or lethargy [1]: no weight change or detectable lethargy | accumulation of TNFα in plasma of LPS-injected mice (TNFα in the plasma): completely inhibited | mean arthritis score (adjuvant arthritis; maximum score 16, untreated 10 on day 18 (FIG. 7)): 5 | inhibition at 100 mg/kg (adjuvant arthritis; Rattus norvegicus, po, versus untreated, read-out: inhibition of arthritis score): 50% | IC50 [2]: 1 to 3 µM | effect on TNFα plasma concentration ([3]; 25 mg/kg oral, LPS 1 h later, blood 2 h after LPS (FIG. 5)): significant inhibitory effect | effect on TNFα plasma concentration ([3]; 50 mg/kg oral, compared with 25 mg/kg (FIG. 5)): greater | effect of 8a administered alone on plasma TNFα ([3]; without LPS (FIG. 5)): negligible | IC50 ([4]; Homo sapiens, 18 h, read-out: IC50, TNFα production): 0.676 µM | IC50 ([4]; Homo sapiens, read-out: TNF inhib. (IC50)): 0.676 µM

IC50 [4, 5]: 1.15 µM
Structure (SMILES): Fc1ccc(-c2ncn(CCCN3CCOCC3)c2-c2ccncc2)cc1 [SB-210313, reference compound]

IC50 [4, 5]: 2.5 µM
Structure (SMILES): COc1ccc(C2CNC(=O)C2)cc1OC1CCCC1 (stereo not shown) [rolipram, reference compound]
